Like-named read-outs stand apart in the source and are kept apart here.
Assays:
in vitro = conditions: human
Procedure: (§1) In addition, the effects on uninfected HFF host cells were assessed. […] The viability of HFF cultures following drug treatments was measured by alamarBlue assay, and the proliferation of T. gondii was quantified by measuring β‐galactosidase activity.

[1] = system: T. gondii β-gal tachyzoites; experiment: T. gondii β-gal tachyzoite proliferation in HFF (β-galactosidase/CPRG assay); conditions: for activity at 0.1 µM / activity at 1 µM: read-out: T. gondii β-gal proliferation (%); for IC50: read-out: IC50 against T. gondii β-gal tachyzoite proliferation; for T. gondii β-gal proliferation (%): 3 days, relative to 0.1 % DMSO control
Procedure: The compounds presented in this study were screened for biological activity in vitro against T. gondii β‐gal, a transgenic strain that constitutively expresses β‐galactosidase, which is grown in HFF monolayers. In addition, the effects on uninfected HFF host cells were assessed. […] The viability of HFF cultures following drug treatments was measured by alamarBlue assay, and the proliferation of T. gondii was quantified by measuring β‐galactosidase activity.
In vitro culture of parasites and host cells: If not stated otherwise, all tissue culture media were purchased from Gibco‐BRL, and biochemical reagents were from Sigma‐Aldrich). Human foreskin fibroblasts (HFF) were maintained in DMEM containing 10 % fetal calf serum (FCS; Gibco‐BRL) and antibiotics as described earlier.10 T. gondii β‐gal (transgenic T. gondii RH expressing the β‐galactosidase gene from E. coli 69 were maintained in HFF cells, and were isolated and separated from their host cells as described.10
In vitro assessment of drug efficacy: To study the effects of compounds against T. gondii tachyzoites in vitro, 1 mM stock solutions of complexes were prepared in DMSO, and stored at −20 °C. For assessment of drug efficacy against T. gondii tachyzoites, parasites were isolated and assays were performed using HFF as host cells as previously described.10 In short, 5×10^3 HFF cells per well were grown to confluence in a 96‐well plate in phenol‐red free culture medium at 37 °C with 5 % CO2. […] Initial assessments of drug efficacy were done by exposing parasite cultures to 0.1 and 1 μM of each compound for a period of three days, or 0.1 % DMSO was added as a control. […] After three days of incubation at 37 °C, 5 % CO2, medium was removed, and cell cultures were permeabilized by using 90 μL PBS containing 0.05 % Triton‐X‐100. After addition of 10 μL of 5 mM chlorophenol red‐β‐D‐galactopyranoside (CPRG; Roche Diagnostics) dissolved in PBS, the absorption shift was measured at 570 nm wavelength at various time points on a VersaMax multiplate reader (Bucher Biotec, Basel, Switzerland). For the initial screening at 0.1 and 1 μM, the activity, measured as the release of chlorophenol red over time, was calculated as percentage from DMSO control, which represented 100 % of T. gondii β‐gal growth. […] IC50 values were calculated after the logit‐log‐transformation of relative growth and subsequent regression analysis. All calculations were performed using the corresponding software tool contained in the Excel software package (Microsoft).

[2] = system: human foreskin fibroblasts (HFF)
Procedure: as §1

[3] = system: human foreskin fibroblasts (HFF); experiment: Cytotoxicity on uninfected confluent HFF (alamarBlue assay); conditions: 2.5 μM
Procedure: as §1

Molecule	viability at 3 days, 0.1 µM (in vitro)	viability at 3 days, 1 µM (in vitro)	activity at 0.1 µM ([1]; Toxoplasma gondii, 72 h)	activity at 1 µM ([1]; Toxoplasma gondii, 72 h)	other results
CCN(CC)c1ccc2cc(C(=O)NCCCCN)c(=O)oc2c1 [Compound 9]	125 ± 20%	111 ± 4%	114 ± 4%	127 ± 4%	–
CCN(CC)c1ccc2cc(C(=O)NCCCNC(=O)OC(C)(C)C)c(=O)oc2c1 [Compound 5]	118 ± 10%	88 ± 10%	131 ± 3%	118 ± 22%	–
CCc1nc(N)nc(N)c1-c1ccc(Cl)cc1 [pyrimethamine, reference compound]	–	–	–	–	viability at 2.5 µM (in vitro): 99%; IC50 ([1]; Toxoplasma gondii, 72 h): 326 nM
O=C(O)c1cc2cc3c4c(c2oc1=O)CCCN4CCC3 [Dye2‐CO2H, 11‐oxo‐2,3,6,7‐tetrahydro‐1H,5H,11H‐pyrano[2,3‐f]pyrido[3,2,1‐ij]quinoline‐10‐carboxylic acid, reference compound]	106 ± 1%	105%	69 ± 11%	92 ± 6%	HFF viability (%) ([2]; 0.1 µM): did not affect viability of HFF; HFF viability (%) ([2]; 1 µM): did not affect viability of HFF; T. gondii β-gal proliferation (%) ([1]; 0.1 µM): 69%
[(η6-p-MeC6H4Pri)2Ru2(µ2-SCH2C6H4-p-But)(µ2-SC6H4-p-OH)2]Cl [Compound 19]	–	–	–	–	HFF viability (%) ([2]; 0.1 µM): 62 ± 8%; HFF viability (%) ([2]; 1 µM): 56 ± 7%; HFF viability at 2.5 μM ([2]; 2.5 μM): 2%; reduction in HFF viability [3]: 98%; T. gondii β-gal proliferation (%) ([1]; 0.1 µM): 3 ± 1%; T. gondii β-gal proliferation (%) ([1]; 1 µM): 2 ± 0%; IC50 ([1]; three days of incubation, in HFF host cells, 6 concentrations 0.03-1 μM): 115 nM
CCN(CC)c1ccc2cc(C(=O)NCCCN)c(=O)oc2c1 [Compound 8]	96 ± 9%	85 ± 6%	117 ± 10%	114 ± 13%	–
CC(C)(C)OC(=O)NCCCCNC(=O)c1cc2cc3c4c(c2oc1=O)CCCN4CCC3 [Compound 7]	95 ± 9%	96 ± 6%	132 ± 6%	148 ± 5%	–
CCN(CC)c1ccc2cc(C(=O)NCCCCNC(=O)OC(C)(C)C)c(=O)oc2c1 [Compound 6]	98 ± 8%	82 ± 4%	137 ± 9%	125 ± 16%	–
NCCCCNC(=O)c1cc2cc3c4c(c2oc1=O)CCCN4CCC3 [Compound 10]	124 ± 5%	69 ± 9%	101 ± 8%	113 ± 7%	–

— PMC7586963, “Coumarin‐Tagged Dinuclear Trithiolato‐Bridged Ruthenium(II)⋅Arene Complexes: Photophysical Properties and Antiparasitic Activity” (Chembiochem, 2020)
